According to ChEMBL document CHEMBL1146773, “Synthesis of dammarane-type triterpenoids with anti-inflammatory activity in vivo” (2004):

Key:
Format in all cases: functional
Mus musculus [1] = assay: In vivo anti-inflammatory activity determined by inhibition of oxazolone-induced allergic contact dermatitis (ACD) in mouse up on tropical application; set-up: concentration or dose not given beside the values
Sus scrofa [2] = assay: In vivo antiinflammatory activity of 130 uM concentration of compound was determined by inhibition of oxazolone-induced allergic contact dermatitis (ACD) in pig up on tropical application
Mus musculus [3] = assay: In vivo antiinflammatory activity of 40 uM concentration of compound was determined by inhibition of oxazolone-induced allergic contact dermatitis (ACD) in mouse up on tropical application
Mus musculus [4] = assay: In vivo antiinflammatory activity of 0.4 uM concentration of compound was determined by inhibition of oxazolone-induced allergic contact dermatitis (ACD) in mouse up on tropical application
Mus musculus [5] = assay: In vivo antiinflammatory activity of compound was determined by inhibition of oxazolone-induced allergic contact dermatitis (ACD) in mouse up on tropical application
Sus scrofa [6] = assay: In vivo antiinflammatory activity of 400 uM concentration of compound was determined by inhibition of oxazolone-induced allergic contact dermatitis (ACD) in pig up on tropical application
Sus scrofa [7] = assay: In vivo antiinflammatory activity of 40 uM concentration of compound was determined by inhibition of oxazolone-induced allergic contact dermatitis (ACD) in pig up on tropical application
Mus musculus [8] = assay: In vivo antiinflammatory activity of 0.04 uM concentration of compound was determined by inhibition of oxazolone-induced allergic contact dermatitis (ACD) in mouse up on tropical application
Mus musculus [9] = assay: In vivo antiinflammatory activity of 4 uM concentration of compound was determined by inhibition of oxazolone-induced allergic contact dermatitis (ACD) in mouse up on tropical application

Row | Compound | Inhibition (Mus musculus [1]) [%] | further results
1 | CC(CCc1ccccc1)[C@H]1CC[C@]2(C)[C@@H]1CC[C@H]1[C@H]2CC[C@H]2C(C)(C)[C@@H](O)CC[C@]12C (stereo in doubt; 15A) | 30 | –
2 | CC1(C)[C@@H](O)CC[C@]2(C)[C@H]3CC[C@@H]4[C@@H](C(CCc5ccccc5)NCc5ccccc5)CC[C@@]4(C)[C@@H]3CC[C@@H]12 (stereo in doubt; 12A) | 22 | –
3 | CC(NCc1nc2ccccc2[nH]1)[C@H]1CC[C@]2(C)[C@@H]1CC[C@H]1[C@H]2CC[C@H]2C(C)(C)[C@@H](O)CC[C@]12C (stereo not given in full) | 27 | –
4 | CC(CCc1ccccc1)[C@H]1CC[C@]2(C)[C@@H]1CC[C@H]1[C@H]2CC[C@H]2C(C)(C)[C@@H](O)CC[C@]12C (stereo in doubt; 15B) | 29 | –
5 | CC(NCc1ccccc1)[C@H]1CC[C@]2(C)[C@@H]1CC[C@H]1[C@H]2CC[C@H]2C(C)(C)[C@@H](O)CC[C@]12C (stereo in doubt; 4bB) | 15 | –
6 | C[C@H](NC(=O)/C=C/c1ccccc1)[C@H]1CC[C@]2(C)[C@@H]1CC[C@H]1[C@H]2CC[C@H]2C(C)(C)[C@@H](O)CC[C@]12C | 11 | –
7 | CC(=O)[C@H]1CC[C@]2(C)[C@@H]1CC[C@@H]1[C@@]3(C)CC[C@H](O)C(C)(C)[C@@H]3CC[C@]12C | 12 | –
8 | C[C@@H]1C[C@H]2[C@@H]3CCC4=CC(=O)C=C[C@]4(C)[C@@]3(F)[C@@H](O)C[C@]2(C)[C@@]1(O)C(=O)CO [DEXAMETHASONE] | – | Inhibition (Sus scrofa [2]): 35%; Inhibition (Mus musculus [3]): 35%; Inhibition (Mus musculus [4]): 41%; Inhibition (Mus musculus [5]): 42%; Inhibition (Sus scrofa [6]): 32%; Inhibition (Sus scrofa [7]): 20%; Inhibition (Mus musculus [8]): 16%
9 | CC1(C)[C@@H](O)CC[C@]2(C)[C@H]3CC[C@@H]4[C@@H](C(CCc5ccccc5)NCc5ccccc5)CC[C@@]4(C)[C@@H]3CC[C@@H]12 (stereo in doubt; 12B) | 15 | –
10 | C[C@H](N)[C@H]1CC[C@]2(C)[C@@H]1CC[C@H]1[C@H]2CC[C@H]2C(C)(C)[C@@H](O)CC[C@]12C (stereo in doubt; 5B) | 41 | –
11 | CCCCNC(C)[C@H]1CC[C@]2(C)[C@@H]1CC[C@H]1[C@H]2CC[C@H]2C(C)(C)[C@@H](O)CC[C@]12C (stereo in doubt; 4aA) | 30 | –
12 | CC1(C)[C@@H](O)CC[C@]2(C)[C@H]3CC[C@@H]4[C@@H](C(N)CCc5ccccc5)CC[C@@]4(C)[C@@H]3CC[C@@H]12 (stereo in doubt; 13B) | 6 | –
13 | C=C(CCc1ccccc1)[C@H]1CC[C@]2(C)[C@@H]1CC[C@H]1[C@H]2CC[C@H]2C(C)(C)[C@@H](O)CC[C@]12C | 36 | –
14 | CC(NCc1ccccc1)[C@H]1CC[C@]2(C)[C@@H]1CC[C@H]1[C@H]2CC[C@H]2C(C)(C)[C@@H](O)CC[C@]12C (stereo in doubt; 4bA) | 28 | –
15 | CC1(C)[C@@H](O)CC[C@]2(C)[C@H]3CC[C@@H]4[C@@H](C(O)CCc5ccccc5)CC[C@@]4(C)[C@@H]3CC[C@@H]12 (stereo in doubt; 11B) | 14 | –
16 | CC(C)CCC(=O)N[C@@H](C)[C@H]1CC[C@]2(C)[C@@H]1CC[C@H]1[C@H]2CC[C@H]2C(C)(C)[C@@H](O)CC[C@]12C | 33 | –
17 | CC(NCC(=O)OC(C)(C)C)[C@H]1CC[C@]2(C)[C@@H]1CC[C@H]1[C@H]2CC[C@H]2C(C)(C)[C@@H](O)CC[C@]12C (stereo in doubt; 4dA) | 31 | –
18 | C=C(C/C=C/C(C)(C)O)[C@@H]1CC[C@]2(C)[C@@H]1CC[C@@H]1[C@@]3(C)CC[C@H](O)C(C)(C)[C@@H]3CC[C@]12C | – | Inhibition (Sus scrofa [2]): 43%; Inhibition (Mus musculus [3]): 65%; Inhibition (Mus musculus [4]): 6%; Inhibition (Sus scrofa [7]): 28%; Inhibition (Mus musculus [9]): 37%
19 | CC(NCCc1ccc(S(N)(=O)=O)cc1)[C@H]1CC[C@]2(C)[C@@H]1CC[C@H]1[C@H]2CC[C@H]2C(C)(C)[C@@H](O)CC[C@]12C (stereo not given in full) | 16 | –
20 | CC(NCC(=O)OC(C)(C)C)[C@H]1CC[C@]2(C)[C@@H]1CC[C@H]1[C@H]2CC[C@H]2C(C)(C)[C@@H](O)CC[C@]12C (stereo in doubt; 4dB) | 21 | –
21 | CC1(C)[C@@H](O)CC[C@]2(C)[C@H]3CC[C@@H]4[C@@H](C(O)CCc5ccccc5)CC[C@@]4(C)[C@@H]3CC[C@@H]12 (stereo in doubt; 11A) | 12 | –
22 | CCCCNC(C)[C@H]1CC[C@]2(C)[C@@H]1CC[C@H]1[C@H]2CC[C@H]2C(C)(C)[C@@H](O)CC[C@]12C (stereo in doubt; 4aB) | 28 | –
23 | C[C@H](N)[C@H]1CC[C@]2(C)[C@@H]1CC[C@H]1[C@H]2CC[C@H]2C(C)(C)[C@@H](O)CC[C@]12C (stereo in doubt; 5A) | 38 | –
24 | CC1(C)[C@@H](O)CC[C@]2(C)[C@H]3CC[C@@H]4[C@@H](C(N)CCc5ccccc5)CC[C@@]4(C)[C@@H]3CC[C@@H]12 (stereo in doubt; 13A) | 30 | –
25 | CC(NCCc1ccccc1-n1ccnc1)[C@H]1CC[C@]2(C)[C@@H]1CC[C@H]1[C@H]2CC[C@H]2C(C)(C)[C@@H](O)CC[C@]12C (stereo not given in full) | 13 | –
